Results reported in PMC7049616 (Acta Pharmaceutica Sinica. B, 2019).

Columns and labels:
TEL-FGFR1-BaF3 = assay: cells; details: 72 h
HUVEC cells = details: after 12 h
BaF3 = assay: Anti-proliferation assay; assay type: cell-based; details: Mus musculus, BaF3, 72 h
[1] = Acute toxicity study, single oral dose, 7 days observation; assay type: in vivo, ICR mice; details: for toxicity observation in acute toxicity study: ICR mice; for Number of deaths (death/total): female ICR mice, 7 days
TEL-PDGFRa-BaF3 = assay: cells; details: 72 h
TEL-BMX-BaF3 = assay: Anti-proliferation assay; assay type: cell-based; details: 72 h
TEL-EPHA2-BaF3 = assay: Anti-proliferation assay; assay type: cell-based; details: 72 h
TEL-VEGFR1-BaF3 = assay: Anti-proliferation assay; assay type: cell-based; details: 72 h
P210-BaF3 = assay: Anti-proliferation assay; assay type: cell-based; details: 72 h
TEL-PDGFRb-BaF3 = assay: cells; details: 72 h
TEL-FGFR4-BaF3 = assay: Anti-proliferation assay; assay type: cell-based; details: 72 h
TEL-RET-BaF3 = assay: cells; details: 72 h
Pharmacokinetics study = assay type: in vivo, Sprague–Dawley rats; details: male, Sprague-Dawley, rat, plasma
TEL-FGFR2-BaF3 = assay: Anti-proliferation assay; assay type: cell-based; details: 72 h
TEL-cKIT-BaF3 = assay: cells; details: 72 h
TEL-FGFR3-BaF3 = assay: Anti-proliferation assay; assay type: cell-based; details: 72 h
TEL-FLT3-BaF3 = assay: cells; details: 72 h
TEL-CSF1R-BaF3 = assay: Anti-proliferation assay; assay type: cell-based; details: 72 h
TEL-EPHA1-BaF3 = assay: Anti-proliferation assay; assay type: cell-based; details: 72 h
TEL-VEGFR3-BaF3 = assay: Anti-proliferation assay; assay type: cell-based; details: 72 h

CCN(CC)CCNC(=O)c1c(C)[nH]c(/C=C2\C(=O)Nc3ccc(F)cc32)c1C [Sunitinib]
GI50 (TEL-FGFR1-BaF3): 1680 nM | HUVEC migration in wound-healing assay (HUVEC cells): less migrated HUVEC cells | GI50 (BaF3): 2560 nM | toxicity observation in acute toxicity study ([1]; single dose 500 mg/kg, recovered starting from day 4): apparent body weight loss | toxicity observation in acute toxicity study ([1]; single dose 1000 mg/kg): unrecovered body weight loss | toxicity observation in acute toxicity study ([1]; single dose 2000 mg/kg): mice death on day 3 | Number of deaths (death/total) ([1]; single oral dose 125 mg/kg): ♀: 0/2 | Number of deaths (death/total) ([1]; single oral dose 250 mg/kg): ♀: 0/2 | Number of deaths (death/total) ([1]; single oral dose 500 mg/kg): ♀: 0/2 | Number of deaths (death/total) ([1]; single oral dose 1000 mg/kg): ♀: 0/2 | Number of deaths (death/total) ([1]; single oral dose 2000 mg/kg): ♀: 2/2 | GI50 (TEL-PDGFRa-BaF3): 1 nM | GI50 (TEL-BMX-BaF3): 3020 nM | GI50 (TEL-EPHA2-BaF3): 1270 nM | GI50 (TEL-VEGFR1-BaF3): 350 nM | GI50 (P210-BaF3): 1460 nM | GI50 (TEL-PDGFRb-BaF3): < 1 nM | GI50 (TEL-FGFR4-BaF3): 2820 nM | GI50 (TEL-RET-BaF3): 110 nM | AUC(0-inf) (Pharmacokinetics study; iv, 1 mg/kg): 145 ± 39.6 ng·h/mL | AUC(0-t) (Pharmacokinetics study; iv, 1 mg/kg): 143 ± 40.3 ng·h/mL | Cmax (Pharmacokinetics study; iv, 1 mg/kg): 236 ± 66.8 ng/mL | MRT last (Pharmacokinetics study; iv, 1 mg/kg): 0.98 ± 0.04 h | Tmax (Pharmacokinetics study; iv, 1 mg/kg): 0.33 h | half-life (Pharmacokinetics study; iv, 1 mg/kg): 1.05 ± 0.34 h | bioavailability (Pharmacokinetics study; oral, 10 mg/kg): 75.7% | AUC(0-inf) (Pharmacokinetics study; po, 10 mg/kg): 1100 ± 96.7 ng·h/mL | AUC(0-t) (Pharmacokinetics study; po, 10 mg/kg): 927 ± 108 ng·h/mL | Cmax (Pharmacokinetics study; po, 10 mg/kg): 175 ± 21.7 ng/mL | MRT last (Pharmacokinetics study; po, 10 mg/kg): 7.63 ± 0.3 h | Tmax (Pharmacokinetics study; po, 10 mg/kg): 1.25 ± 1.06 h | half-life (Pharmacokinetics study; po, 10 mg/kg): 1.38 ± 0.46 h | GI50 (TEL-FGFR2-BaF3): 4 nM | GI50 (TEL-cKIT-BaF3): 81 nM | GI50 (TEL-FGFR3-BaF3): 370 nM | GI50 (TEL-FLT3-BaF3): 32 nM | GI50 (TEL-CSF1R-BaF3): 11 nM | GI50 (TEL-EPHA1-BaF3): 3210 nM | GI50 (TEL-VEGFR3-BaF3): 570 nM
